Laboratory results as given in article PMC6089189, “Targeting inhibitors of apoptosis proteins suppresses medulloblastoma cell proliferation via G2/M phase arrest and attenuated neddylation of p21” (Cancer Medicine, 2018).
Residues, ends and D or L forms follow the SMILES beside them. *: point of attachment. Cbz = O=C(OCc1ccccc1)*

Tests used:
Format in all cases: cell-based
[1] = test system: p21; assay: Immunoblotting of p21 protein in MB cells; settings: DAOY and D283MED
Excerpt: (§1) Antibody against XIAP, cIAP2, p21, or p53 was purchased from Cell Signaling Technology (Danvers, MA, USA); antibody for detection of cIAP1, cIAP1/2, p27, p16, GAPDH, cyclin A, or cyclin B1 was purchased from Santa Cruz Biotechnology (Dallas, TX, USA); antibodies against CDK1 and CDK2 were bought from Millipore (Burlington, MA, USA) and Upstate Biotechnology, respectively. The blotting membrane was developed using enhanced chemiluminescence (ECL) substrate (Millipore), and analyzed by densitometry and Image J (National Institutes of Health, USA).
(§2) Figure 4 IAPs Inhibition Increases the Protein Levels of p21, which are Governed by Proteasomal Degradation. A, DAOY and D283MED cells were incubated with LBW242 (10 μmol/L) for 0‐360 min. Total cell lysates were collected at different time points and then subjected to immunoblotting. B, The protein levels of cIAP1 and p21 were quantitated, normalized by the levels of GAPDH, and shown in the curve graphs. C, MB cells were transfected with siRNAs against cIAP1 or cIAP2, and nontargeting (NT) siRNA, and protein levels of cIAP1, cIAP2, and p21 were detected by immunoblotting. D, MB cells were treated with MG‐132, CHX, and MNL4924 to verify p21 protein degradation. The levels of p21 were analyzed by immunoblotting

[2] = test system: cIAP1; assay: Immunoblotting of IAPs in MB cells, time course; settings: 10 μmol/L, in 60 minutes, DAOY and D283MED
Excerpt: as §1, §2

[3] = test system: D283MED cells; assay: Apoptosis by Annexin V/PI and FACS, D283MED; settings: Annexin V‐positive population by FACS
[4] = test system: DAOY cells; assay: Apoptosis by Annexin V/PI and FACS, DAOY; settings: Annexin V‐positive population by FACS
[5] = test system: CDK1, CDK2, cyclin A and cyclin B1; assay: Immunoblotting of G2/M transition‐related proteins in MB cells; settings: 72 h
Excerpt: as §1
(§3) A, MB cells were treated with DMSO (control), vincristine (1.25 nmol/L for DAOY and 2.5 nmol/L for D283MED), or cisplatin (0.31 μmol/L for DAOY and 0.625 μmol/L for D283MED), or in combination with LCL161 (10 μmol/L) or LBW242 (10 μmol/L) for 72 h. Thereafter, cells were harvested and their DNA contents were analyzed by FACS. B, The proportion of each cell cycle compartment was shown in bar graphs.

[6] = test system: BJ cells (normal fibroblast cell line); assay: MTT cell viability assay, BJ; settings: for effect on BJ cell proliferation: 30 μmol/L, 72 h; for IC50: BJ, MTT
Protocol: (§4) This assay was carried out using thiazolyl blue tetrazolium bromide (MTT; Sigma), as described in previous studies.12 Cell viability was calculated using the formula: (OD of experimental well/OD of control well) × 100%.
(§5) Figure 1 High Levels of IAPs in MB Cells Correspond to Sensitivity to IAP Inhibitors LBW242 or LCL161. A, The levels of IAPs and p21 in MB cell lines DAOY, D283MED and normal controls HA‐h and BJ were determined by immunoblotting. Their levels in MB cells were quantitated, normalized by GAPDH, presented in a bar graph, and compared to those in HA‐h cells. B, DAOY, D283MED, HA‐h, and BJ cell lines were treated with LBW242 or LCL161 at different concentrations (0, 5, 10, 20, and 40 μmol/L) and DMSO (control) for 72 h. Cell viability was determined by MTT assay. Data are represented as mean ± SEM of three independent experiments (*P < 0.05, **P < 0.01, and ***P < 0.005)

[7] = test system: ubiquitination of p21; assay: Immunoprecipitation of p21, ubiquitination (Ub‐HA); settings: MB cells, in the presence of MG‐132 for 6 hours
Protocol: (§6) To observe ubiquitination or neddylation of p21, anti‐p21 antibody (Cell Signaling Technology) and Meg‐Beads‐Protein G (TOOLs) were added into total cell lysates collected from MB cells after transfected with plasmid overexpressing ubiquitin‐hemagglutinin (HA; Addgene, Cambridge, MA, USA) or NEDD8‐HA (Addgene) and treated with MG‐132 for 6 hours. Thereafter, immunoprecipitates were analyzed by immunoblotting with anti‐HA antibody (Sigma).
(§7) Figure 6 IAP Antagonist LBW242 Attenuates p21‐Interacted cIAP1 Expression and Neddylation of p21. A, To examine the ubiquitination of p21, MB cells were transfected with the plasmid carrying ubiquitin (Ub)‐HA and then treated with LBW242 combined with MG‐132 for 6 h. Total cell lysates were used for immunoprecipitation of p21, and subsequently applied to immunoblotting for detection of Ub‐HA, cIAP1, and cIAP2. B, To detect the neddylation of p21, MB cells were transfected with the plasmid overexpressing NEDD8‐HA, treated with MG‐132 and LBW242, and then subjected to immunoprecipitation. C, To examine whether cIAP1 dominates neddylation of p21, MB cells were co‐transfected with cIAP1 siRNA and NEDD8‐HA overexpressed plasmid, treated with MG‐132 for 6 h, and then applied to immunoprecipitation. D, DAOY cells were treated with MG‐132 for 6 h, and stained by immunofluorescence with anti‐cIAP1, anti‐cIAP2, and anti‐p21 antibodies. […]

[8] = test system: p21 RNA; assay: RT‐PCR analysis of p21 RNA in MB cells; settings: DAOY and D283MED
Excerpt: Total RNA was extracted using trizole reagent (Easypure Total RNA Reagent) and converted into cDNA product using iScript cDNA Synthesis Kit (BIO‐RAD, Hercules, CA, USA). The cDNA product was mixed with PCR Master Mix reagent (Promega, Madison, WI, USA) and PCR primers, and then subjected to 1% agarose gel electrophoresis. The target gene expression was normalized by GAPDH. Primer sequences for p21 are 5′‐[…]‐3′ (forward) and 5′‐GGGCTTCCTCTTGGA‐GAAGAT‐3′ (reverse); primer sequences for cIAP1 are 5′‐[…]‐3′ (forward) and 5′‐[…]‐3′ (reverse); primer sequences for cIAP2 are 5′‐[…]‐3′ (forward) and 5′‐CAAGTAGATGAGGGTAA‐CTGGC‐3′ (reverse); primer sequences for GAPDH are 5′‐TGAAGGTCGGAGTCA‐ACGGATTTGGT‐3′ (forward) and 5′‐[…]‐3′ (reverse).

[9] = test system: HA‐h cells (human astrocyte‐hippocampal); assay: MTT cell viability assay, HA‐h; settings: for effect on HA‐h cell proliferation: 30 μmol/L, 72 h; for IC50: HA‐h, MTT
Protocol: as §4, §5

[10] = test system: neddylation of p21; assay: Immunoprecipitation of p21, neddylation (NEDD8‐HA); settings: MB cells, in the presence of MG‐132 for 6 hours
Protocol: as §6, §7

[11] = test system: MB cells (DAOY and D283MED); assay: MTT cell viability / proliferation, stated for MB cells together; settings: 30 μmol/L, 72 h
Protocol: as §4, §5

[12] = test system: DAOY cells; assay: MTT cell viability assay, DAOY
Protocol: as §4, §5

[13] = test system: DAOY cells; assay: Cell cycle analysis (PI, FACS), DAOY; settings: siRNA with DMSO control, vincristine or cisplatin, Fig. S2
Protocol: (§8) MB cells were harvested following treatment with reagents. Cells were fixed with 70% ethanol, and then stored at −20°C overnight. Subsequent to equilibrating to room temperature, the cells were permeabilized with PBS containing 0.5% Triton X‐100 and 0.05% RNAse followed by staining with 50 μg/mL propidium iodide (PI; Sigma) at 4°C for 30 minutes. Finally, DNA content was detected by fluorescence‐activated cell sorting (FACS; Beckman Coulter Epics XL, Brea, CA, USA), and data were analyzed by EXPO32 ADC software (Beckman‐Coulter, USA).
as §3

[14] = test system: D283MED cells; assay: MTT cell viability assay, D283MED
Protocol: as §4, §5

[15] = test system: D283MED cells; assay: Cell cycle analysis (PI, FACS), D283MED; settings: siRNA with DMSO control, vincristine or cisplatin, Fig. S2
Protocol: as §8, §3

[16] = cisplatin alone or with IAP inhibitor (10 μmol/L)
[17] = cisplatin 72 h, with or without siRNA transfection
[18] = Homo sapiens, vincristine alone or with IAP inhibitor (10 μmol/L)

`C[C@@H]1C[C@@H]([C@H](O)CC2CC(=O)NC(=O)C2)C(=O)[C@@H](C)C1` [cycloheximide] was tested, and the p21 protein expression [1] was “decreased p21 protein levels after 30 minutes”.

For `NS(=O)(=O)OC[C@@H]1C[C@@H](n2ccc3c(N[C@H]4CCc5ccccc54)ncnc32)C[C@@H]1O` [MLN4924], the p21 protein expression [1] was “accumulated in a time‐dependent manner”.

In the case of `CN[C@@H](C)C(=O)N[C@H](C(=O)N1CC[C@H]2CCN(CCc3ccccc3)C[C@H]21)C1CCCCC1` [LBW242], the cIAP1 protein expression [2] is reported as “effectively inhibited cIAP1 rather than cIAP2 or XIAP expression”, the “Apoptosis (%)” value [3] is reported as 20.1 ± 0.3% and the “Apoptosis (%)” value [4] is reported as 22.6 ± 1.2%. The p21 protein expression [1] was “enhances p21 expression”, the “protein levels of CDK1, CDK2, cyclin A and cyclin B1” value [5] was “decreased” and the “effect on BJ cell proliferation” value [6] was “only mildly slowed”. For the same compound, the “ubiquitination of p21” value [7] was “no effect”, the “p21 transcriptional (RNA) levels” value [8] was “does not affect p21 RNA levels” and the “effect on HA‐h cell proliferation” value [9] was “only mildly slowed”. The “neddylation of p21” value [10] was “reduced neddylation of p21” and the “inhibition of proliferation activities” value [11] was 50%.

With `N.N.[Cl][Pt][Cl]` [Cisplatin, cisplatin] the “Apoptosis (%)” value [3] was 55.3 ± 3.5%, the “Apoptosis (%)” value [4] was 13.3 ± 2.4% and the IC50 [6, 16] was over 5000 nM. For the same compound, the IC50 [12, 17] was 740 ± 60 nM, the IC50 [12, 16] was 1800 ± 100 nM and the “G2/M (proportion of cells)” value [13] was 16.70%. It also gave an IC50 [9, 16] of over 5000 nM, an IC50 [14, 17] of over 2500 nM and an IC50 [14, 16] of 1200 ± 250 nM. The “G2/M (proportion of cells)” value [15] was 19.10%.

`CC[C@]1(O)C[C@H]2CN(CCc3c([nH]c4ccccc34)[C@@](C(=O)OC)(c3cc4c(cc3OC)N(C=O)[C@H]3[C@@](O)(C(=O)OC)[C@H](OC(C)=O)[C@]5(CC)C=CCN6CC[C@]43[C@@H]65)C2)C1` [Vincristine] was tested, and the “Apoptosis (%)” value [3] was 34.4 ± 2.4%, the “Apoptosis (%)” value [4] was 6.0 ± 2.1% and the IC50 ([6]; Homo sapiens, chemotherapeutic agent alone or with IAP inhibitor (10 μmol/L)) was over 5 nM. The IC50 ([12]; Homo sapiens, vincristine 72 h, with or without siRNA transfection) was 3.47 ± 0.28 nM, the IC50 [12, 18] was 5.5 ± 0.61 nM and the “G2/M (proportion of cells)” value [13] was 18.28%. For the same compound, the IC50 [9, 18] was over 20 nM, the IC50 ([14]; Homo sapiens, D283 Med, vincristine 72 h, with or without siRNA transfection) was over 5 nM and the IC50 ([14]; Homo sapiens, D283 Med, vincristine alone or with IAP inhibitor (10 μmol/L)) was 5.7 ± 0.47 nM. The “G2/M (proportion of cells)” value [15] was 21.20%.

With `CN[C@@H](C)C(=O)N[C@H](C(=O)N1CCC[C@H]1c1nc(C(=O)c2ccc(F)cc2)cs1)C1CCCCC1` [LCL161] the “Apoptosis (%)” value [3] was 14.0 ± 0.4%, the “Apoptosis (%)” value [4] was 17.2 ± 2.5% and the “protein levels of CDK1, CDK2, cyclin A and cyclin B1” value [5] was “decreased”. For the same compound, the “effect on BJ cell proliferation” value [6] was “only mildly slowed”, the “effect on HA‐h cell proliferation” value [9] was “only mildly slowed” and the inhibition at 30 µM ([11]; read-out: inhibition of proliferation activities) was 50%.

`CC(C)C[C@@H](C=O)NC(=O)[C@H](CC(C)C)NC(=O)[C@H](CC(C)C)NC(=O)OCc1ccccc1` [MG‐132] (Cbz-Leu-Leu-Leu-aldehyde) was tested, and the p21 protein expression [1] was “accumulated in a time‐dependent manner”.
